Test results from US20150322527A1, “TRANSCRIPTIONAL PROFILING AND BIOMARKER-BASED METHODS FOR IDENTIFYING AND EVALUATING AGENTS FOR ANTIOXIDANT EFFICACY IN COSMETIC SKIN CARE FORMULATIONS” (The Procter & Gamble Company, priority 2010, published 2015).

Tested on: Nrf2-mediated transcription off the antioxidant response element (ARE)
Assay: ARE activation assay (ARE32 luciferase reporter cell line)
Assay type: cell-based
Conditions: 24 hrs
Text: An ARE reporter cell line may be developed and used to screen for compounds that increase transcription off the ARE in response to oxidative stress, resulting in an increase in cellular antioxidant defense proteins. An ARE32 reporter cell line was adapted to provide an assay for cosmetic agents which may increase transcription off the ARE and increase expression of Phase 2 enzymes, thus augmenting the body's own antioxidant response. ARE32 is a stable reporter cell line produced by CXR Biosciences by transfecting MCF7 cells with pGL8x-ARE (8 copies of the rat GST ARE linked to the luciferase gene) and pCDNA3.1 which contains the neomycin selectable marker. Selection is performed in the presence of G418 and resistant clones are isolated and screened for induction of luciferase. An exemplary standard is tert-butyl hydroquinone (tBHQ), a known activator of Nrf2. ARE32 is a stable MCF7 cell line containing pGL8x-ARE (8 copies of the rat GST ARE linked to the luciferase gene) and pCDNA3.1 which contains the neomycin selectable marker, which was licensed from CXRbiosciences. Selection was performed in the presence of G418 and resistant clones were isolated. Clones were screened for induction of luciferase in response to tBHQ. ARE32 cells are maintained routinely in the DMEM (phenol red free) containing: • 10% FBS • 50 units/ml penicillin & 50 μg/ml streptomycin • 0.8 mg/ml G418 • Cells are subcultured every 3-4 days. […] Induction of Luciferase with tBHQ • 1. In a 96 well-plate, seed 1×10^4 cells/well in 100 μl DMEM containing 50 units/ml penicillin, 50 μg/ml streptomycin, 0.8 mg/ml G418 and 10% FBS. • 2. Incubate the cells at 37° C. in a 5% CO2 incubator for 24 hrs. • 3. […] (10 mM tBHQ of stock solution was freshly prepared in DMSO) • 4. Add 100 ul of media after treatment, final assay volume 200 uL. • 5. Incubate the cells at 37° C. in CO2 incubator for another 24 hrs. • 6. Assay for luciferase activity with Steady-glo Assay System by following the manufacture's instruction: • a. Remove 100 μL of media • b. Add 100 μl of reconstituted substrate directly to well • c. Incubate 5-10 min shaking. • d. […] Read plate for 5 seconds per well. The ARE activation assay described in Example 3 is employed. To test for transcription off the antioxidant response element, the reporter line is grown, compounds are added, each compound in varying doses, and allowed to incubate for 24 hours. Cells are then lysed and luminescent output is detected and quantified. […] Proposed compounds are screened using the ARE assay set forth in Example 3, above. Table 4 illustrates “ARE screening hits” along with concentrations tested for each compound and the observed percent increase in ARE. […]

Molecule | ARE (% control) (concentration tested 200 μM) | ARE (% control) (concentration tested 0.01%)
CCCCCC/C=C/C#CCCCCCCCC(=O)O [Xymenynic acid] | 329 | 
O=C(O)CCCCC1CCSS1 (stereo not drawn) [Alpha-lipoic acid] | 534 | 
O=C(/C=C/c1ccc(O)c(O)c1)O[C@H](Cc1ccc(O)c(O)c1)C(=O)O [Rosmarinic acid] | 1211 | 
Umbelliferin |  | 1815
